The values below are quoted from earlier work in patent publication US20090017139A1, “Iodine therapy dosing for treating medical conditions” (priority 2007, published 2009).

For data set [1] the following is noted: male rats, 100 days; cited from earlier work.
For data set [2] the following is noted: perchlorate 6 mg i.p., 2 hr predosing; cited from earlier work.
The conditions of data set [3]: 1.5 to more than 10 g/day for weeks at a time; cited from earlier work.
For a further data set, the system named is school age children. As to conditions: 11 mg/d, 2.5 years later; cited from earlier work.

With `I` [iodide, reference compound], the thyroid size entry in data set [1] is “Significant increases in thyroid size”. In addition, in data set [2], the “reduction of thyroidal uptake by perchlorate” value was “more than 90%”.
For the compound `[I-].[K+]` [potassium iodide], the side effects entry in data set [3] was “few side effects are reported”.
Take `[I-].[Na+]` [sodium iodide]: the incidence of goiter in the data set on school age children was 0.2%.
